Literature values in publication PMC9302689 (British Journal of Clinical Pharmacology, 2022).

How the values were obtained:
[1] = cited from earlier work
[2] = cited from earlier work; remark: listed apart in the source

Compound | Effect on serum cortisol and prolactin levels [1] | NeuroCart effects [2]
CN(C)CCCC1(c2ccc(F)cc2)OCc2cc(C#N)ccc21 (stereo not shown) [citalopram] | increase levels of these hormones | –
CNC1(c2ccccc2Cl)CCCCC1=O (stereo not shown) [Ketamine] | – | decreased saccadic peak velocity, adaptive tracking and alertness and increased body sway and psychedelic effects
CN(C)CCC[C@@]1(c2ccc(F)cc2)OCc2cc(C#N)ccc21 [escitalopram] | increase levels of these hormones | –
Buprenorphine | – | decreased adaptive tracking and saccadic peak velocity and increased body sway
